The text below walks through data of US20260109693A1, “BUTENOLIDE COMPOUNDS CONTAINING THIAZOLIDINONE STRUCTURE AS WELL AS PREPARATION METHOD THEREFOR AND USE THEREOF” (priority 2023, published 2026).

This assay concerns Fusarium graminearum strains resistant to phenamacril. Type of assay: cell-based.

For “5-(4-methyl-2-oxo-1-oxaspiro[4,5]-dec-3-en-3-ethylidene)-2-thio-4-thiazolidinone [Compound 3-1]”, the “inhibition rate on resistant strains compared with standard strain” value (1 mg/L and 0.5 mg/L, resistant strains T10, T2-5, T32, T13, T12 vs standard strain 2021) is on record as “the same as that of the standard wild-type Fusarium graminearum strain”. For the same substance, the “growth inhibition of all resistant strains” value (50 mg/L, resistant strains T2-5, T10, T32, T18, T48, T79) is given as “completely inhibit the growth of all resistant strains”.
